Assay results as given in PMC8443589, “Modelling human liver fibrosis in the context of non-alcoholic steatohepatitis using a microphysiological system” (Communications Biology, 2021).
Where “and” joins values, the source holds several entries; their conditions need not be identical. Identical values can stand only once.

What was measured:
[1] = tested on: NASH liver microtissues (PHH, KC and HSC co-cultures); experiment: Metabolic turnover (T1/2) in NASH liver microtissues in the MPS platform, LC-MS/MS; format: in vitro ADME, human; details: 1 µM, 48 hours
Method: (§1) Despite many on-going clinical trials, there is still no approved treatment for NASH, but emerging data provide confidence that NASH is a pharmacologically responsive disease. […] First, we set out to determine an optimal dosing strategy for each of the treatments based on an assessment of their physicochemical properties and pharmacokinetic behaviour within the MPS device (Table 1). Non-specific binding to the MPS device was determined after a 72 h incubation with each candidate drug at 1 μM (Table 1). Both candidate drugs were calculated to have less than 0.1% loss as a consequence of non-specific binding to the MPS device (Table 1). […] Because the hepatocytes within the MPS device are metabolically competent, we evaluated the half-life for each candidate drug in NASH microtissues.
(§2) To determine the metabolic turnover of obeticholic acid and elafibranor in the MPS platform, both compounds were incubated with liver microtissues for 48 h starting at 1 µM and media samples taken at regular intervals (AdooQ Bioscience, UK). The presence of each compound in the cell culture medium was quantified by liquid chromatography-tandem mass spectrometry (LC-MS/MS). Samples were separated using a Waters Acquity UPLC system with an ACE Excel C18-AR column and analysed on a Waters TQ-S Micro mass spectrometer against quantitative standard curves. Both compounds were also assessed for protein binding in HEP-Fat media using rapid equilibrium dialysis (RED) and quantified using the same LC-MS/MS methodology.
(§3) Supplemental Figure 5 – Obeticholic acid and Elafibranor are metabolised in the NASH MPS model.
(§4) The metabolism of a) Elafibranor and b) Obeticholic acid and was assessed in PHH, KC and HSC co-cultures grown in the liver MPS platform for 7 days. Following a double media exchange the compounds were incubated with the microtissues at a starting concentration of 1 µM and media samples taken at regular intervals across 48 hours. Media samples were assessed for the concentration of compound by quantitative LC-MS.
(§5) (1 picture or pasted object on this page, not shown here)

[2] = as above; format: in vitro ADME, human; details: human, NASH liver microtissues grown 7 days, medium sampled across 48 h
Method: as §1, §2, §3, §4, §5

[3] = tested on: liver MPS NASH model (PHH, KC and HSC co-cultures, high fat); experiment: Quantitative confocal imaging of collagen type 1 and alpha SMA in liver MPS NASH model dosed with OCA or ELF; format: cell-based, human; details: for Collagen type 1 fluroscent marker intensity: per MPS scaffold; for reduction of collagen-1 deposition / reduction of α-SMA expression: fat only NASH model, 10 days; for reduction of α-SMA expression: concentration-dependent
Method: Fig. 3 Obeticholic acid and Elafibranor both modulate inflammatory and fibrosis phenotype in liver MPS NASH model and phenotype can additionally be reversed with dietary changes. PHH, KC and HSC co-cultures were cultured in the MPS platform under high fat conditions and dosed with varying concentrations of Obeticholic acid (OCA) and Elafibranor (ELF) QD or vehicle control (control) for 10 days, following an initial 4-day pre-culture phase. a The secreted cytokine profile from liver microtissues was compared by Luminex to determine the effects of each compound on the inflammatory profile of the liver with samples analysed at day 8 and 14 of the culture. Data were normalised by Z-transformation to allow comparison of all analytes and presented as a heatmap. b The expression of fibrosis-associated genes was analysed in total RNA from control, OCA and ELF treated liver microtissues (highest concentration for each compound) using Human Fibrosis RT2 Profiler PCR Arrays. Gene expression changes are expressed as a fold change over control. c Liver microtissues were stained for collagen-type I, α-SMA, nuclei (DAPI - blue), phalloidin (green) and imaged by confocal microscopy. Representative images are shown and scale bars 200 µm. d Staining of microtissue was quantified by measuring total fluorescence intensity throughout individual microtissues, each data point represents an average of all the microtissues imaged within an MPS scaffold (min 8, max 20 microtissues). e PHH, KC and HSC co-cultures were cultured in the MPS platform under high fat or lean conditions for 30 days. Cultures either remained in the same type of media throughout or were switched at day 15 from fat media to lean media (Fat -> Lean). Cell culture medium samples were analysed for the presence of IL-6, f MCP-1, g TIMP-1, which were measured by ELISA. h Microtissues were stained with Oil-Red O to determine fat loading during culture period, total stain was quantified by absorbance at 510 nm. All datapoints shown, either as box-whisker plots highlighting mean and min-max or with error bars highlighting means ± SD. All data from a minimum of three independent cultures; statistical comparisons made to control samples unless other comparison shown.
To visualise fibrosis proteins in the liver microtissues, scaffolds were fixed for 15 min in 4% paraformaldehyde following culture in the MPS platform. They were permeabilized with 0.1% Triton-X and blocked with 2% BSA before staining overnight at 4 °C with antibodies against alpha SMA (Abcam, UK - ab7817) and collagen 1 (Rockland, USA—600 401 103 0.5). Scaffolds were then stained with fluorescently conjugated secondary antibodies (Alexa-Fluor 555 goat anti-rabbit #A21429; Alexa-Fluor 647 donkey anti-rabbit #A31573; Alexa-Fluor 555 goat anti-mouse #A21424; Alexa-Fluor 647 goat anti-mouse #A21235 (Thermofisher, UK) along with Phalloidin 488 (Thermofisher, UK) and Hoechst 33342 (Invitrogen) for 1.5 h at room temperature. Scaffolds were washed three times with PBS and mounted onto glass microscope slides with anti-fade mounting medium. Confocal fluorescent images of the stained scaffolds were captured using a Cell Voyager 7000 (CV700, Yokogawa Inc.) automated confocal microscope. Image acquisition was controlled using the SearchFirst functionality of the Wako Software suite (Fujifilm Wako Automation). A workflow was designed to automatically locate and acquire images of each scaffold in a consistent and unbiased manner (Supp. Fig. 1). The workflow consisted of a first round of acquisition where the entire slide is imaged at low (4×) magnification capturing the Hoechst channel only. Images were automatically stitched together using a MATLAB script and eight regions of interest (ROI) were identified on each scaffold (same array of ROI per scaffold). XY coordinates were fed back to the microscope which subsequently imaged each ROI with full Z stacks obtained at ×10 magnification, 120 µm stack with a 5 µm slice interval. […]

[4] = design: method as in PMID 27743502; details: cited from earlier work

Row | SMILES | metabolism in the NASH MPS model [1] | half-life at 1 µM [2] | Collagen type 1 fluroscent marker intensity ([3]; ELF 13 uM QD 10 days, listed as ELF) | reduction of collagen-1 deposition [3] | reduction of α-SMA expression [3] | Plasma protein binding [4] | Collagen type 1 fluroscent marker intensity ([3]; OCA 0.25 uM QD 10 days, listed as OCA) | Collagen type 1 fluroscent marker intensity ([3]; OCA 5 uM QD 10 days, listed as OCA)
1 | CSc1ccc(C(=O)/C=C/c2cc(C)c(OC(C)(C)C(=O)O)c(C)c2)cc1 [Elafibranor] | metabolised | 16 h | 1659.63 and 1182.93 and 1579.82 and 1137.61 and 1507.1 | up to 35% | up to 50% |  |  | 
2 | CC[C@H]1[C@@H](O)[C@@H]2[C@H](CC[C@]3(C)[C@@H]([C@H](C)CCC(=O)O)CC[C@@H]23)[C@@]2(C)CC[C@@H](O)C[C@@H]12 [Obeticholic acid] | metabolised | 12 h |  | up to 35% | up to 50% | >99% | 2993.61 and 2644.36 and 2590.02 and 1579.53 | 1471.67 and 1379.09 and 1471.56 and 1817.03 and 1176.35 and 1231.08
